Results reported in the supplement of paper PMC12317010.
Where a name gives a salt, the structure may show the parent alone.

Assay: collision cross section in nitrogen (drift tube, single-field); higher = larger gas-phase ion size
[1] = ion type: [M+H], ion source: APCI, ion mode: Positive
[2] = ion type: [M+H], ion source: ESI, ion mode: Positive
[3] = ion type: [M+Na], ion source: ESI, ion mode: Positive
[4] = ion type: [M+], ion source: APCI, ion mode: Positive
[5] = ion type: [M-H], ion source: ESI, ion mode: Negative
[6] = ion source: ESI, ion mode: Positive, ion type: [M]+ (permanent cation)
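Note: chemical standards at 10 µM analysed by drift tube IMS-QTOF MS in about 3.95 torr nitrogen, mean of duplicate injections differing ≤1%, mass error below 10 ppm.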

| Structure (SMILES) | collision cross section in nitrogen [1] | collision cross section in nitrogen [2] | collision cross section in nitrogen [3] | collision cross section in nitrogen [5] | further results |
| --- | --- | --- | --- | --- | --- |
| CCCC[N+]1(C)CCCC1 [1-Butyl-1-methylpyrrolidinium chloride] | – | – | – | – | collision cross section in nitrogen (ion source: APCI, ion mode: Positive, ion type: [M]+ (permanent cation)): 131.2 Å²; collision cross section in nitrogen [6]: 132.4 Å² |
| CN(C)CCN(Cc1cccs1)c1ccccn1 [Methapyrilene hydrochloride] | 157.6 Å² | 157.6 Å² | 160.1 Å² | – | – |
| CCOP(=O)(CN(CCO)CCO)OCC [Diethyl (N,N-bis(2-hydroxyethyl)amino)methanephosphonate] | 153.5 Å² | 153.9 Å² | 156.5 Å² | 157.5 Å² | – |
| O=[N+]([O-])O [Nitric acid, calcium salt (2:1)] | – | – | – | 104.5 Å² | – |
| Nc1nc2ccc([N+](=O)[O-])cc2s1 [2-Amino-6-nitrobenzothiazole] | 144.1 Å² | 143.6 Å² | – | 131.3 Å² | – |
| CCOC(=O)NCCC[Si](OCC)(OCC)OCC [Ethyl [3-(triethoxysilyl)propyl]carbamate] | – | – | 171.4 Å² | – | – |
| Cc1cc(C2CC2)nc(Nc2ccccc2)n1 [Cyprodinil] | 153.1 Å² | 153.4 Å² | – | – | – |
| CCCCC(CC)COC(=O)C=Cc1ccc(OC)cc1 (stereo not drawn) [Octinoxate] | – | – | 184.1 Å² | – | – |
| C=CC(=O)OCCn1c(=O)n(CCOC(=O)C=C)c(=O)n(CCOC(=O)C=C)c1=O | – | – | 184.5 Å² | – | – |
| CCCCCCCCC(CCCCCC)C(=O)O (stereo not drawn) [2-Hexyldecanoic acid] | – | – | – | 176.7 Å² | – |
| CCC(C)(CC)C(=O)O [2-Ethyl-2-methylbutyric acid] | – | – | – | 130.5 Å² | – |
| Cc1ccc(NC=O)c(C)c1 [N-(2,4-Dimethylphenyl)formamide] | – | – | – | 133.8 Å² | – |
| O=P1(N(CCCl)CCCl)NCCCO1 (stereo not drawn) [Cyclophosphamide monohydrate] | 148 Å² | 147.6 Å² | 154.6 Å² | – | – |
| Cc1cc(C)cc(OCC2CNC(=O)O2)c1 (stereo not drawn) [Metaxalone] | – | – | 152.3 Å² | – | – |
| CCCCC(CC)COS(=O)(=O)O (stereo not drawn) [Sodium ethasulfate] | – | – | – | 150.5 Å² | – |
| CO/N=C(/C1=NOCCO1)c1ccccc1Oc1ncnc(Oc2ccccc2Cl)c1F [Fluoxastrobin] | 204.8 Å² | 204.3 Å² | 208.1 Å² | – | – |
| CS(=O)(=O)c1cc(C(F)(F)F)ccc1C(=O)c1cnoc1C1CC1 [Isoxaflutole] | – | – | 185.2 Å² | 175.5 Å² | – |
| O=S(=O)(O)C(F)(F)C(F)(F)C(F)(F)C(F)(F)C(F)(F)C(F)(F)C(F)(F)C(F)(F)F [Perfluorooctanesulfonic acid] | – | – | – | 168.7 Å² | – |
| CCCCOP(=O)(CCCC)OCCCC [Dibutyl butylphosphonate] | – | – | 181.8 Å² | – | – |
| Cc1cc(=O)[nH]c(=S)[nH]1 [6-Methyl-2-thiouracil] | – | – | – | 123.1 Å² | – |
| CCCCCCCCCCCCN(CCO)CCO [Lauryldiethanolamine] | 183.7 Å² | 184.1 Å² | 180.3 Å² | – | – |
| CCOc1cc(Oc2ccc(C(F)(F)F)cc2Cl)ccc1[N+](=O)[O-] [Oxyfluorfen] | – | – | – | 172.1 Å² | – |

| Structure (SMILES) | collision cross section in nitrogen [1] | collision cross section in nitrogen [2] | collision cross section in nitrogen [3] | collision cross section in nitrogen [5] | further results |
| --- | --- | --- | --- | --- | --- |
| COc1cccc([C@H](O)C2CCN(CCc3ccc(F)cc3)CC2)c1OC [Volinanserin] | 185 Å² | 185 Å² | 188 Å² | – | – |
| Cc1ncc(C[n+]2csc(CCO)c2C)c(N)n1 [Thiamine] | – | – | – | – | collision cross section in nitrogen [6]: 162.7 Å² |
| CCCCCCCCCCCC(=O)OC [Methyl dodecanoate] | – | – | – | 158.5 Å² | – |
| CCOc1ccc(N=Nc2ccc(C=Cc3ccc(N=Nc4ccc(OCC)cc4)cc3S(=O)(=O)O)c(S(=O)(=O)O)c2)cc1 [C.I. Direct Yellow 12] | – | 278.7 Å² | 286.9 Å² | 279.3 Å² | – |
| CCNc1nc(Cl)nc(NC(C)C)n1 [Atrazine] | 149 Å² | 149.5 Å² | – | – | – |
| O=C1NS(=O)(=O)c2ccccc21 [Saccharin] | – | – | – | 131.1 Å² | – |
| CCCCCCCCCCCCc1ccccc1S(=O)(=O)O [Sodium dodecylbenzenesulfonate] | – | – | 167.5 Å² | 186.3 Å² | – |
| C#C[C@]1(O)CC[C@H]2[C@@H]3CCC4=CC(=O)CC[C@@H]4[C@H]3CC[C@@]21C [Norethindrone] | – | 178.1 Å² | – | – | – |
| CN1C(=CC=O)C(C)(C)c2ccccc21 [1,3-Dihydro-1,3,3-trimethyl-2H-indol-2-ylidene acetaldehyde] | 144.6 Å² | 145.1 Å² | – | – | collision cross section in nitrogen [4]: 143.2 Å² |
| CCN(CC)c1ccccc1 [N,N-Diethylaniline] | – | – | 132.8 Å² | – | – |
| CCOC(=O)CCCCCCCCC(=O)OCC [Diethyl decanedioate] | – | – | 171.5 Å² | – | – |
| CS(=O)(=O)c1ccc(C(=O)C2C(=O)CCCC2=O)c(Cl)c1COCC(F)(F)F [Tembotrione] | – | 189.3 Å² | 185.1 Å² | 188.5 Å² | – |
| CCOP(=S)(OCC)SCn1nnc2ccccc2c1=O [Azinphos-ethyl] | – | – | 177.9 Å² | – | – |
| Cc1cccc(C(C)(C)C)c1O [2-tert-Butyl-6-methylphenol] | – | – | – | 138.2 Å² | – |
| O=C1C=CC(=O)N1c1ccccc1 [1-Phenyl-1H-pyrrole-2,5-dione] | – | 135.3 Å² | – | – | – |
| CCN(CC)c1ccc2c(-c3ccccc3C(=O)O)c3ccc(N(CC)CC)cc3[o+]c2c1 [Rhodamine B] | – | – | – | – | collision cross section in nitrogen [6]: 218.1 Å² |
| CC(C)=CCCC(C)CC(=O)O (stereo not drawn) [Citronellic acid] | – | – | – | 148.8 Å² | – |
| O=C(N[C@H]1CN2CCC1CC2)c1ccc2c(c1)OCCO2 | 175.9 Å² | 175.7 Å² | – | 177.1 Å² | – |
| S=c1[nH]c2ccccc2[nH]1 [2-Mercaptobenzimidazole] | 128 Å² | 127.8 Å² | – | 127.1 Å² | collision cross section in nitrogen [4]: 125.7 Å² |
| O=c1[nH]c(=O)c2c[nH]nc2[nH]1 [Oxypurinol] | – | – | – | 122.3 Å² | – |
| CC(C)(c1ccccc1)c1ccc(O)cc1 [4-Cumylphenol] | – | – | – | 157.8 Å² | – |
| COc1cc(C=O)cc2c1[C@H](COC(N)=O)[C@]1(OC(C)=O)ON2C[C@H]2[C@@H]1N2C(C)=O | 191.3 Å² | 192.1 Å² | 190.5 Å² | – | – |

Second part, led by results:

| collision cross section in nitrogen [1] | collision cross section in nitrogen [2] | collision cross section in nitrogen [3] | collision cross section in nitrogen [5] | Structure (SMILES) | further results |
| --- | --- | --- | --- | --- | --- |
| 190.4 Å² | 190.3 Å² | 202.1 Å² | – | O=C(COc1ccc(Cl)cc1)N1CCN(Cc2ccc3c(c2)OCO3)CC1 [Fipexide hydrochloride] | – |
| 125.7 Å² | 125.8 Å² | – | – | Cc1ccc2ncccc2c1 [6-Methylquinoline] | collision cross section in nitrogen [4]: 124.3 Å² |
| 194.5 Å² | 194.2 Å² | 195.8 Å² | 196.1 Å² | COC(=O)c1ccc(I)cc1S(=O)(=O)NC(=O)Nc1nc(C)nc(OC)n1 [Iodosulfuron methyl ester sodium salt] | – |
| – | – | – | 124.5 Å² | O=C(NO)c1ccccc1O [Salicylhydroxamic acid] | – |
| – | 196.2 Å² | – | – | CC1=C(CC(=O)O)c2cc(F)ccc2/C1=C\c1ccc(S(C)=O)cc1 (stereo not drawn) [Sulindac] | – |
| 234.1 Å² | 235.6 Å² | 239.2 Å² | 235.2 Å² | COCCOc1cc2cc(C(=O)NC3CCN(C(C)C)CC3)n(CC(=O)Nc3ccc(Cl)cn3)c2cn1 | – |
| – | – | – | 161.1 Å² | CCCCCCOC(=O)c1ccc(O)cc1 [Hexylparaben] | – |
| – | – | – | 152.3 Å² | O=C(c1ccc(O)cc1O)c1ccc(O)cc1O [2,2',4,4'-Tetrahydroxybenzophenone] | – |
| 160.3 Å² | 160.3 Å² | 171.3 Å² | 161.6 Å² | O=c1c(-c2ccc(O)cc2)coc2cc(O)cc(O)c12 [Genistein] | – |
| – | – | 181.5 Å² | 168 Å² | CCCCCCCCOC(=O)c1ccccc1C(=O)O [Octyl hydrogen phthalate] | – |
| – | – | – | 133.6 Å² | O=[N+]([O-])c1ccc2[nH]c(S)nc2c1 [5-Nitro-2-mercaptobenzimidazole] | – |
| – | – | 146.4 Å² | – | CC(=O)CCc1ccc(OC(C)=O)cc1 [4-[4-(Acetyloxy)phenyl]-2-butanone] | – |
| – | 197.8 Å² | 203.2 Å² | – | COc1ccc([C@@H]2Sc3ccccc3N(CCN(C)C)C(=O)[C@@H]2OC(C)=O)cc1 [Diltiazem hydrochloride] | – |
| 160.8 Å² | 160.2 Å² | 181.8 Å² | – | O=c1cc(-c2ccccc2)oc2ccc3ccccc3c12 [5,6-Benzoflavone] | – |
| 146.6 Å² | 146.5 Å² | – | – | O=c1cc(-c2ccccc2)oc2ccccc12 [Flavone] | – |
| 177.7 Å² | 178 Å² | – | 175.8 Å² | Nc1c(Oc2ccccc2)cc(O)c2c1C(=O)c1ccccc1C2=O [C.I. Disperse Red 60] | collision cross section in nitrogen [4]: 172.6 Å² |
| – | 186.1 Å² | 201.9 Å² | 183.9 Å² | O=S(=O)(c1ccc(OCc2ccccc2)cc1)c1ccccc1O [BPS-MPE4] | – |
| 184.3 Å² | 184.3 Å² | 181.8 Å² | 193.9 Å² | Cc1nc(-c2ccccn2)ncc1C(=O)Nn1cc(C)c2cc(F)ccc21 | collision cross section in nitrogen [4]: 190.7 Å² |
| – | – | 156.4 Å² | – | CC(c1cc2ccccc2s1)N(O)C(N)=O (stereo not drawn) [Zileuton] | – |
